{
  "source": "patent US9168243B2",
  "about": "“Pharmaceutical compositions comprising 8-substituted dibenzylbutyrolactone lignans” (priority 2010, dated 2015)",
  "key": {"[1]": {"tested_on": "DMBA-induced mammary tumors", "conditions": "cited from earlier work"}, "[2]": {"conditions": "cited from earlier work"}, "phospho-Akt(ser473)": {"tested_on": "phospho-Akt(ser473)", "assay": "Western blot of Akt / phospho-Akt(ser473)", "format": "cell-based", "experimental": "Whole cell lysates were prepared by lysing floating and attached cells in Laemmli sample buffer and boiling the samples for 10 minutes. Proteins were separated by SDS-PAGE and transferred on PVDF membrane (Millipore). Western blotting was performed using antibodies against Akt, phospho-Akt (Ser473), GSK-3β, phospho-GSK-3β (Ser9) and phospho-EGF receptor Tyr(1068) (Cell Signalling Technology), Actin (clone AC-40; Sigma-Aldrich), PI3K p85α (clone 4/PI3-Kinase; BD Pharmingen), EGF receptor, Insulin receptor β and IGF-I receptor β (Santa Cruz Biotechnology), and Phospho-tyrosine (clone 4G10; Millipore). HRP-conjugated secondary antibodies were from Southern Biotechnology Associates, Promega, and Amersham Biosciences. The results were visualized using the ECL method (Amersham Biosciences) on x-ray film. The presented Western blot results are representative of at least three independent experiments. Densitometric analysis of Western blots was done using scanned films with the MCID M5+ software. The values were normalized to the untreated control sample, which was given the value 1. The histograms in FIG. 4 present a relative decrease in ratio of phosphorylated vs. non-phosphorylated protein compared to control cells.\nLNCaP cells (+/−1 nM androgen) were treated with 0-100 μM enterolactone (ENL), matairesinol (MAT) or NTG for 1 hour prior to preparation of total cell lysates (FIG. 4A). The relative decrease in pAkt/Akt ratio was quantified from western blot analysis with Akt (60 kDa) and phospho-Akt(ser473) (Mean±SEM; n=4; Student's t-test *p<0.05, **p<0.01). Alternatively, androgen-deprived LNCaP cells were incubated with 100 μM NTG for 2 hours, fixed and labeled with Akt antibody followed by Alexa 546-conjugated secondary antibody. The samples were viewed at LSM 510 confocal microscope (63× oil objective, 543 nm excitation) (FIG. 4B). To examine the time-dependence of the observed inhibitory effect, LNCaP cells (+/−1 nM androgen) were incubated with 100 μM NTG for 0-8 hours after which total cell lysates were prepared. The western blot analysis with Akt, phospho-Akt(ser473), GSK-3β and phospho-GSK-3β(ser9) was quantified. The histogram presents a relative decrease in pAkt/Akt ratio (FIG. 4C.) or pGSK-3β/GSK-3β ratio (FIG. 4D.) compared to control cells (Mean±SEM; n=3). […]\nImportantly, substitution with methyl group at position 8 further increases activity of dibenzylbutyrolactone lignans in sensitization of LNCaP prostate cancer cells to TRAIL-mediated apoptosis (FIG. 8). […] The samples were analyzed by flow cytometry and the fraction of sub-G0/G1 events (nuclear fragmentation) was detected as a measure of apoptotic cell death (mean±SEM; n=4). […]"}, "[3]": {"conditions": "LNCaP +/- androgen, 100 μM NTG 2 hours, then medium change"}},
  "note": "Entries after “also recorded” stand apart in the source; their conditions may differ.",
  "data": [
    {"compound": "COc1cc(CC2COC(=O)C2(O)Cc2ccc(O)c(OC)c2)ccc1O", "note": "(stereo not shown) [NTG, Nortrachelogenin]", "values": [
      {"measurement": "growth of DMBA-induced mammary tumors", "setting": "[1]; during promotion and early progression", "value": "did not inhibit the growth of DMBA-induced mammary tumors"},
      {"measurement": "endocrine-modulatory effects", "setting": "[1]; long-term experiments", "value": "weak endocrine-modulatory effects"},
      {"measurement": "conversion into the mammalian lignans", "setting": "[2]; in vivo", "value": "not known to be converted into the mammalian lignans, ENL or END"},
      {"measurement": "absorption and excretion", "setting": "[2]; urine", "value": "absorbed and excreted in urine as such"},
      {"measurement": "Akt phosphorylation (pAkt/Akt ratio)", "setting": "phospho-Akt(ser473); LNCaP +/- 1 nM androgen, 0-100 μM lignan, 1 hour (NTG also 100 μM, 0-8 hours)", "value": "downregulates Akt and GSK-3β phosphorylation; also recorded: inhibit Akt phosphorylation yet more efficiently than ENL or MAT"},
      {"measurement": "time after washout at which Akt activity starts returning", "setting": "phospho-Akt(ser473); [3]", "value": 10, "unit": "min"},
      {"measurement": "time after washout to total recovery of Akt activity", "setting": "phospho-Akt(ser473); [3]", "value": "≤ 1", "unit": "h"}
    ]}
  ]
}
